Results: patent US6525001B1, “Substituted pyrimidine and pyridine herbicides” (Mid-American Commercialization Corporation, priority 1997, dated 2003)

Key:
Test in all cases: Test B pre-/postemergence
Type in all cases: in vivo
Parameters in all cases: key: 0 is no effect; 10 is complete control
[1] = test system: blackgrass (Alopecurus myosuroides)
Outline: (§1)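 Response scores run from 0, meaning no effect, to 10, meaning complete control, assigned by eye relative to controls twelve to sixteen days after spraying. Treatment was both preemergence on planted seed and postemergence on plants at the 1- to 4-leaf stage.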

[2] = test system: wheat (Triticum aestivum)
Outline: as §1

[3] = test system: pigweed (Amaranthus retroflexus)
Outline: as §1

soybean (Glycine max) = test system: soybean (Glycine max)
Outline: as §1

[4] = test system: giant foxtail (Setaria faberii)
Outline: as §1

[5] = test system: sugar beet (Beta vulgaris)
Outline: as §1

rape (Brassica napus) = test system: rape (Brassica napus)
Outline: as §1

[6] = test system: crabgrass (Digitaria sanguinalis)
Outline: as §1

[7] = test system: momingglory (Ipomoea hederacea)
Outline: as §1

[8] = test system: broadleaf signalgrass (Brachiaria decumbens)
Outline: as §1

[9] = test system: cocklebur (Xanthium strumarium)
Outline: as §1

[10] = test system: velvetleaf (Abutilon theophrasti)
Outline: as §1

[11] = test system: bedstraw (Galium aparine)
Outline: as §1

corn (Zea mays) = test system: corn (Zea mays)
Outline: as §1

CCc1cnc(-c2ccc(C(F)(F)F)cc2)nc1Cc1cccc(C(F)(F)F)c1 [Compound 22]
3: Morningglory plant response rating ([7]; Rate 62 g/ha, Preemergence) | Plant response rating, Corn (corn (Zea mays); Rate 62 g/ha, Postemergence) | Plant response rating, Corn (corn (Zea mays); Rate 125 g/ha, Postemergence)
0: Corn plant response rating (corn (Zea mays); Rate 62 g/ha, Preemergence) | Corn plant response rating (corn (Zea mays); Rate 125 g/ha, Preemergence)
10: Plant response rating, Redroot pigweed ([3]; Rate 62 g/ha, Postemergence) | Plant response rating, Redroot pigweed ([3]; Rate 125 g/ha, Postemergence) | Redroot pigweed plant response rating ([3]; Rate 125 g/ha, Preemergence) | Plant response rating, Redroot pigweed ([3]; Rate 250 g/ha, Postemergence) | Plant response rating, Redroot pigweed ([3]; Rate 250 g/ha, Preemergence) | Giant foxtail plant response rating ([4]; Rate 125 g/ha, Preemergence) | Plant response rating, Giant foxtail ([4]; Rate 250 g/ha, Preemergence) | Plant response rating, Sugarbeets ([5]; Rate 62 g/ha, Postemergence) | Plant response rating, Sugarbeets ([5]; Rate 125 g/ha, Postemergence) | Plant response rating, Sugarbeets ([5]; Rate 250 g/ha, Postemergence) | Plant response rating, Sugarbeets ([5]; Rate 250 g/ha, Preemergence) | Plant response rating, Rape (rape (Brassica napus); Rate 62 g/ha, Postemergence) | Plant response rating, Rape (rape (Brassica napus); Rate 125 g/ha, Postemergence) | Plant response rating, Rape (rape (Brassica napus); Rate 250 g/ha, Postemergence) | Plant response rating, Rape (rape (Brassica napus); Rate 250 g/ha, Preemergence) | Crabgrass plant response rating ([6]; Rate 125 g/ha, Preemergence) | Plant response rating, Crabgrass ([6]; Rate 250 g/ha, Preemergence) | Plant response rating, Morningglory ([7]; Rate 62 g/ha, Postemergence) | Plant response rating, Morningglory ([7]; Rate 125 g/ha, Postemergence) | Morningglory plant response rating ([7]; Rate 125 g/ha, Preemergence) | Plant response rating, Morningglory ([7]; Rate 250 g/ha, Postemergence) | Plant response rating, Morningglory ([7]; Rate 250 g/ha, Preemergence)
4: Plant response rating, Wheat ([2]; Rate 62 g/ha, Postemergence) | Plant response rating, Wheat ([2]; Rate 125 g/ha, Postemergence) | Plant response rating, Wheat ([2]; Rate 250 g/ha, Preemergence) | Plant response rating, Corn (corn (Zea mays); Rate 250 g/ha, Postemergence)
6: Plant response rating, Wheat ([2]; Rate 250 g/ha, Postemergence) | Plant response rating, Soybean (soybean (Glycine max); Rate 62 g/ha, Postemergence) | Plant response rating, Giant foxtail ([4]; Rate 62 g/ha, Postemergence) | Plant response rating, Giant foxtail ([4]; Rate 125 g/ha, Postemergence) | Bedstraw plant response rating ([11]; Rate 62 g/ha, Preemergence)
1: Soybean plant response rating (soybean (Glycine max); Rate 62 g/ha, Preemergence) | Soybean plant response rating (soybean (Glycine max); Rate 125 g/ha, Preemergence) | Cocklebur plant response rating ([9]; Rate 62 g/ha, Preemergence) | Cocklebur plant response rating ([9]; Rate 125 g/ha, Preemergence)
2: Wheat plant response rating ([2]; Rate 62 g/ha, Preemergence) | Wheat plant response rating ([2]; Rate 125 g/ha, Preemergence) | Plant response rating, Soybean (soybean (Glycine max); Rate 250 g/ha, Preemergence) | Plant response rating, Cocklebur ([9]; Rate 250 g/ha, Preemergence) | Plant response rating, Corn (corn (Zea mays); Rate 250 g/ha, Preemergence)
7: Plant response rating, Soybean (soybean (Glycine max); Rate 125 g/ha, Postemergence) | Rape plant response rating (rape (Brassica napus); Rate 125 g/ha, Preemergence) | Crabgrass plant response rating ([6]; Rate 62 g/ha, Preemergence) | Plant response rating, B. signalgrass ([8]; Rate 125 g/ha, Postemergence) | Plant response rating, B. signalgrass ([8]; Rate 250 g/ha, Postemergence) | Bedstraw plant response rating ([11]; Rate 125 g/ha, Preemergence) | Plant response rating, Bedstraw ([11]; Rate 250 g/ha, Preemergence)
5: Plant response rating, Blackgrass ([1]; Rate 62 g/ha, Postemergence) | Rape plant response rating (rape (Brassica napus); Rate 62 g/ha, Preemergence) | Plant response rating, B. signalgrass ([8]; Rate 62 g/ha, Postemergence) | B. signalgrass plant response rating ([8]; Rate 62 g/ha, Preemergence)
9: Blackgrass plant response rating ([1]; Rate 125 g/ha, Preemergence) | Plant response rating, Blackgrass ([1]; Rate 250 g/ha, Postemergence) | Plant response rating, Blackgrass ([1]; Rate 250 g/ha, Preemergence) | Redroot pigweed plant response rating ([3]; Rate 62 g/ha, Preemergence) | Giant foxtail plant response rating ([4]; Rate 62 g/ha, Preemergence) | Sugarbeets plant response rating ([5]; Rate 62 g/ha, Preemergence) | Sugarbeets plant response rating ([5]; Rate 125 g/ha, Preemergence) | Plant response rating, Crabgrass ([6]; Rate 62 g/ha, Postemergence) | Plant response rating, Crabgrass ([6]; Rate 125 g/ha, Postemergence) | Plant response rating, Crabgrass ([6]; Rate 250 g/ha, Postemergence) | B. signalgrass plant response rating ([8]; Rate 125 g/ha, Preemergence) | Plant response rating, B. signalgrass ([8]; Rate 250 g/ha, Preemergence) | Plant response rating, Velvetleaf ([10]; Rate 250 g/ha, Postemergence)
8: Blackgrass plant response rating ([1]; Rate 62 g/ha, Preemergence) | Plant response rating, Blackgrass ([1]; Rate 125 g/ha, Postemergence) | Plant response rating, Soybean (soybean (Glycine max); Rate 250 g/ha, Postemergence) | Plant response rating, Giant foxtail ([4]; Rate 250 g/ha, Postemergence) | Plant response rating, Cocklebur ([9]; Rate 62 g/ha, Postemergence) | Plant response rating, Cocklebur ([9]; Rate 125 g/ha, Postemergence) | Plant response rating, Cocklebur ([9]; Rate 250 g/ha, Postemergence) | Plant response rating, Velvetleaf ([10]; Rate 62 g/ha, Postemergence) | Velvetleaf plant response rating ([10]; Rate 62 g/ha, Preemergence) | Plant response rating, Velvetleaf ([10]; Rate 125 g/ha, Postemergence) | Velvetleaf plant response rating ([10]; Rate 125 g/ha, Preemergence) | Plant response rating, Velvetleaf ([10]; Rate 250 g/ha, Preemergence) | Plant response rating, Bedstraw ([11]; Rate 125 g/ha, Postemergence) | Plant response rating, Bedstraw ([11]; Rate 250 g/ha, Postemergence)

COc1cnc(-c2ccc(C(F)(F)F)cc2)nc1Cc1cccc(C(F)(F)F)c1 [Compound 23]
4: Plant response rating, Wheat ([2]; Rate 125 g/ha, Postemergence) | Morningglory plant response rating ([7]; Rate 62 g/ha, Preemergence) | Plant response rating, B. signalgrass ([8]; Rate 62 g/ha, Postemergence)
5: Plant response rating, Wheat ([2]; Rate 250 g/ha, Postemergence) | Plant response rating, Giant foxtail ([4]; Rate 125 g/ha, Postemergence) | Plant response rating, B. signalgrass ([8]; Rate 125 g/ha, Postemergence)
8: Plant response rating, Soybean (soybean (Glycine max); Rate 62 g/ha, Postemergence) | Plant response rating, Soybean (soybean (Glycine max); Rate 125 g/ha, Postemergence) | Plant response rating, Soybean (soybean (Glycine max); Rate 250 g/ha, Postemergence) | Sugarbeets plant response rating ([5]; Rate 62 g/ha, Preemergence) | Sugarbeets plant response rating ([5]; Rate 125 g/ha, Preemergence) | Morningglory plant response rating ([7]; Rate 125 g/ha, Preemergence) | Bedstraw plant response rating ([11]; Rate 125 g/ha, Preemergence)
9: Blackgrass plant response rating ([1]; Rate 125 g/ha, Preemergence) | Plant response rating, Blackgrass ([1]; Rate 250 g/ha, Postemergence) | Plant response rating, Blackgrass ([1]; Rate 250 g/ha, Preemergence) | Plant response rating, Redroot pigweed ([3]; Rate 62 g/ha, Postemergence) | Redroot pigweed plant response rating ([3]; Rate 62 g/ha, Preemergence) | Redroot pigweed plant response rating ([3]; Rate 125 g/ha, Preemergence) | Plant response rating, Giant foxtail ([4]; Rate 250 g/ha, Postemergence) | Crabgrass plant response rating ([6]; Rate 62 g/ha, Preemergence) | Plant response rating, Crabgrass ([6]; Rate 125 g/ha, Postemergence) | Plant response rating, Crabgrass ([6]; Rate 250 g/ha, Postemergence) | Plant response rating, Morningglory ([7]; Rate 125 g/ha, Postemergence) | Plant response rating, Morningglory ([7]; Rate 250 g/ha, Postemergence) | B. signalgrass plant response rating ([8]; Rate 62 g/ha, Preemergence) | B. signalgrass plant response rating ([8]; Rate 125 g/ha, Preemergence) | Plant response rating, B. signalgrass ([8]; Rate 250 g/ha, Postemergence) | Plant response rating, B. signalgrass ([8]; Rate 250 g/ha, Preemergence) | Plant response rating, Cocklebur ([9]; Rate 62 g/ha, Postemergence) | Plant response rating, Velvetleaf ([10]; Rate 62 g/ha, Postemergence) | Plant response rating, Velvetleaf ([10]; Rate 125 g/ha, Postemergence) | Plant response rating, Velvetleaf ([10]; Rate 250 g/ha, Postemergence) | Plant response rating, Bedstraw ([11]; Rate 62 g/ha, Postemergence) | Plant response rating, Bedstraw ([11]; Rate 125 g/ha, Postemergence) | Plant response rating, Bedstraw ([11]; Rate 250 g/ha, Postemergence) | Plant response rating, Bedstraw ([11]; Rate 250 g/ha, Preemergence)
1: Soybean plant response rating (soybean (Glycine max); Rate 62 g/ha, Preemergence) | Soybean plant response rating (soybean (Glycine max); Rate 125 g/ha, Preemergence) | Plant response rating, Soybean (soybean (Glycine max); Rate 250 g/ha, Preemergence) | Rape plant response rating (rape (Brassica napus); Rate 62 g/ha, Preemergence) | Cocklebur plant response rating ([9]; Rate 62 g/ha, Preemergence) | Cocklebur plant response rating ([9]; Rate 125 g/ha, Preemergence) | Velvetleaf plant response rating ([10]; Rate 62 g/ha, Preemergence) | Corn plant response rating (corn (Zea mays); Rate 125 g/ha, Preemergence) | Plant response rating, Corn (corn (Zea mays); Rate 250 g/ha, Preemergence)
10: Plant response rating, Redroot pigweed ([3]; Rate 125 g/ha, Postemergence) | Plant response rating, Redroot pigweed ([3]; Rate 250 g/ha, Postemergence) | Plant response rating, Redroot pigweed ([3]; Rate 250 g/ha, Preemergence) | Giant foxtail plant response rating ([4]; Rate 62 g/ha, Preemergence) | Giant foxtail plant response rating ([4]; Rate 125 g/ha, Preemergence) | Plant response rating, Giant foxtail ([4]; Rate 250 g/ha, Preemergence) | Plant response rating, Sugarbeets ([5]; Rate 62 g/ha, Postemergence) | Plant response rating, Sugarbeets ([5]; Rate 125 g/ha, Postemergence) | Plant response rating, Sugarbeets ([5]; Rate 250 g/ha, Postemergence) | Plant response rating, Sugarbeets ([5]; Rate 250 g/ha, Preemergence) | Plant response rating, Rape (rape (Brassica napus); Rate 62 g/ha, Postemergence) | Plant response rating, Rape (rape (Brassica napus); Rate 125 g/ha, Postemergence) | Plant response rating, Rape (rape (Brassica napus); Rate 250 g/ha, Postemergence) | Crabgrass plant response rating ([6]; Rate 125 g/ha, Preemergence) | Plant response rating, Crabgrass ([6]; Rate 250 g/ha, Preemergence) | Plant response rating, Morningglory ([7]; Rate 250 g/ha, Preemergence) | Plant response rating, Cocklebur ([9]; Rate 125 g/ha, Postemergence) | Plant response rating, Cocklebur ([9]; Rate 250 g/ha, Postemergence) | Plant response rating, Velvetleaf ([10]; Rate 250 g/ha, Preemergence)
3: Plant response rating, Wheat ([2]; Rate 62 g/ha, Postemergence) | Wheat plant response rating ([2]; Rate 125 g/ha, Preemergence) | Rape plant response rating (rape (Brassica napus); Rate 125 g/ha, Preemergence) | Plant response rating, Cocklebur ([9]; Rate 250 g/ha, Preemergence) | Velvetleaf plant response rating ([10]; Rate 125 g/ha, Preemergence) | Plant response rating, Corn (corn (Zea mays); Rate 125 g/ha, Postemergence) | Plant response rating, Corn (corn (Zea mays); Rate 250 g/ha, Postemergence)
0: Corn plant response rating (corn (Zea mays); Rate 62 g/ha, Preemergence)
6: Plant response rating, Blackgrass ([1]; Rate 62 g/ha, Postemergence) | Blackgrass plant response rating ([1]; Rate 62 g/ha, Preemergence) | Plant response rating, Wheat ([2]; Rate 250 g/ha, Preemergence) | Plant response rating, Morningglory ([7]; Rate 62 g/ha, Postemergence)
2: Wheat plant response rating ([2]; Rate 62 g/ha, Preemergence) | Plant response rating, Giant foxtail ([4]; Rate 62 g/ha, Postemergence) | Plant response rating, Corn (corn (Zea mays); Rate 62 g/ha, Postemergence)
7: Plant response rating, Blackgrass ([1]; Rate 125 g/ha, Postemergence) | Plant response rating, Rape (rape (Brassica napus); Rate 250 g/ha, Preemergence) | Plant response rating, Crabgrass ([6]; Rate 62 g/ha, Postemergence)
